Source: patent publication US20200164005A1, “PHARMACEUTICAL COMPOSITIONS OF A BILE ACID DERIVATIVE AND MICROBIOME AND USES THEREOF” (Intercept Pharmaceuticals, Inc., priority 2017, published 2020)

Legend:
[1] = tested on: bacterial strains found in the human small intestine; assay: Inhibition of bacterial growth by bile acids, microbroth dilution, optical density at 630 nm; type: cell-based; conditions: aerobic or anaerobic
Experimental: The toxicity of several bile acids to various gut microbiome species was examined. Representative species were exposed to different bile acids at a range of concentrations under either aerobic or anaerobic condition, and the growth of the species at these concentrations was measured by determining the optical density of the culture.
Lactobacillus casei CP was purchased from Custom Probiotics Inc. (Glendale, Calif.) as L. casei Custom Probiotic Powder (strain confirmed by Sanger sequencing of the 16S gene). Pediococcus pentosaceus KE-99 was purchased from Probiohealth (Beverly Hills, Calif.) as KE-99 LACTO Tablet (strain confirmed by Sanger sequencing of the 16S gene). L. casei 393, Streptoccocus thermophilus LMD-9, Akkermansia muciniphila Muc, and Veillonella parvula Te3 were purchased from the American Type Culture Collection (ATCC, Manassas, Va.). Lactococcus lactis NZ9000 was purchased from BOCA Scientific (Boca Raton, Fla.). Escherichia coli Nissle was obtained from Dr. Mark Goulian (University of Pennsylvania, Philadelphia, Pa.).
L. casei, P. pentasaceus, and L. lactis were grown in de Man, Rogosa, and Sharpe (MRS) medium (Anaerobe Systems, Morgan Hill, Calif.); E. coli was grown in lysogeny broth (LB) medium (Fisher Scientific, USA); S. thermophilus and A. muciniphila were grown in brain heart infusion (BHI) medium (Fisher Scientific, USA and Anaerobe Systems, Morgan Hill, Calif.), and; V. parvula was grown in reinforced clostridial medium (Fisher Scientific, USA). Aerobic cultures were incubated at 37° C.; anaerobic cultures were incubated at 37° C. in an anaerobic glove box (Coy Laboratories, Grass Lake, Mich.).
Glycochenodeoxycholic, glycocholic, and taurocholic acids were purchased from Sigma Aldrich (St. Louis, Mo.). Obeticholic acid was provided by Intercept Pharmaceuticals, Inc. (New York, N.Y.).
Inhibition of bacterial growth by bile acids was determined by the microbroth dilution method. Plates were prepared with 100 uL of medium containing the appropriate concentrations of bile acid. Wells were inoculated with 1 uL of an overnight culture, covered, and incubated overnight (3 days for A. muciniphila and V. parvula, which are slow growing organisms). Growth was measured via optical density at 630 nm, and measurements were zeroed against wells containing the appropriate bile acid level with no bacteria. All tests were performed in triplicate. Data is expressed as the percent (%) reduction in growth, which was calculated against controls (i.e., no bile acids). The responses of representative species to different concentrations of bile acids are illustrated by the heat maps shown in FIGS. 53A-53D.

[2] = tested on: Lactococcus lactis, Streptococcus thermophilus, and Lactobacillus casei/paracasei; assay: Minimal inhibitory concentrations (MIC) of bile acids and OCA, aerobic and anaerobic; type: cell-based; conditions: millimolar range; aerobic and anaerobic
From the text: FIGS. 58A-58B: Minimal inhibitory concentrations (MICs) of selected Gram-positive bacterial species in response treatment with two endogenous bile acids and OCA. […] N=3 per measurement. […] N=3 per measurement.
a (Begley et al., FEMS Microbiol Rev. 29, 625-651 (2005)), and conducted genomic analysis is consistent with the notion that specific Gram-positive taxa become proportionally more abundant during OCA administration due to enhanced proliferation. FXR-dependent inhibition of endogenous bile acid synthesis by OCA may reduce the growth inhibitory effects on Gram-positive bacterial species that are normally sensitive to bile acids. To determine if the three bacterial species with the greatest representation of pathways associated with OCA (FIG. 57A) are sensitive to bile acids, the species-specific minimal inhibitory concentrations (MIC) of the two most predominant bile acids in the human small intestine, glycochenodeoxycholic acid (GCDCA) and glycocholic acid (GCA) were determined (FIG. 58A). Since the environment of the small intestinal lumen may transition from an aerobic to anaerobic state along its length (He et al., Proceedings of the National Academy of Sciences of the United States of America, 96, 4586-4591 (1999)), MICs were determined under both aerobic and anaerobic conditions. […] Consistent with this notion, it has been shown that bile salt hydrolases (BSH), enzymes that are unique to bacteria resident in the mammalian gut where they can enhance bile acid tolerance (Begley et al., FEMS Microbiol Rev. 29, 625-651 (2005)), are missing from the genome of S. thermophilus, which is induced by OCA. It can be supported by showing that these species are sensitive to growth inhibition in vitro when exposed to physiologically-relevant concentrations of conjugated bile acids found in the small intestine. […] Since OCA is a bile acid analogue possibly capable of inhibiting bacterial growth, the MICs of OCA for the same bacterial species were determined (FIG. 58B). […] These findings support the notion that OCA treatment leads to the increased growth of bile acid sensitive bacterial taxa by suppressing endogenous bile acid synthesis.

| SMILES | growth inhibitory effects on various strains of gram positive bacteria [1] | growth of all three species at physiologically relevant concentrations [2] |
| --- | --- | --- |
| C[C@H](CCC(=O)NCC(=O)O)[C@H]1CC[C@H]2[C@@H]3[C@H](O)C[C@@H]4C[C@H](O)CC[C@]4(C)[C@H]3C[C@H](O)[C@]12C [GCA, glycocholic acid, reference compound] | differential growth inhibitory effects | significantly inhibited |
| CC(CCC(=O)NCC(=O)O)C1CCC2C3C(O)CC4CC(O)CCC4(C)C3CCC12C (centres unmarked) [GCDCA, glycochenodeoxycholic acid, reference compound] | differential growth inhibitory effects | significantly inhibited |
| C[C@H](CCC(=O)NCCS(=O)(=O)O)[C@H]1CC[C@H]2[C@@H]3[C@H](O)C[C@@H]4C[C@H](O)CC[C@]4(C)[C@H]3C[C@H](O)[C@]12C [TCA, taurocholic acid] | differential growth inhibitory effects |  |
